The results in this text go back to patent publication US20110117055A1, “Methods of Treating Hepatitis C Virus with Oxoacetamide Compounds” (priority 2009, published 2011).

The structures appear in SMILES notation.

Broadly, the CC50 is the concentration at which the toxic effect on the cells reaches its halfway point. Read a high CC50 as lower toxicity to the cells.

The subject of one series is HCV2aChLuc (NS3:A156S). Description: Infectivity of protease mutant virus versus wild type in the presence of compounds. In kind it is cell-based, HCV genotype 2a. As to conditions: HCV2aChLuc (NS3:A156S) vs wild type HCV2aChLuc. An excerpt:
Therefore, we introduced A156S mutation in the backbone of HCV2aChLuc genome and investigated the infectivity of the mutant virus in the presence of compounds.

Series [1] deals with HCV. In words: Combination of viral entry inhibitor with HCV protease inhibitor VX-950. In kind it is cell-based. The note with it: fixed ratio based on EC50.
Description: Additional combination studies of Compound 1 and Compound 5 with the HCV NS3 protease inhibitor VX-950 were conducted. Compound 1 and Compound 5 were tested singly and in combination with VX-950. The ratio of the two compounds, based on the compound's EC50, remained fixed across the dosing range. The potential cytotoxicity of individual compounds was assessed with a luminescent ATP-based cell viability assay (Cell Titer-Glo; Promega). Cell culture and luciferase compound assays were performed as previously described in Example 3.
Compound interactions were quantified by the approach described by Chou and Talalay, relying on the median effect principle and the multiple-drug effect equation. […] Isobolograms were generated for each combination tested and were used to determine the additivity, synergism or antagonism of inhibitor combinations. Combination indices (CI) were determined with Calcusyn (Biosoft) for each experiment at the EC50, EC75, and EC90 of the combination. By convention, a CI of <0.9 was considered synergistic, a CI of ≧0.9 or ≦1.1 was considered additive, and a CI of >1.1 was deemed antagonistic. […] Combination indices (CI) were determined with Calcusyn (Biosoft) for each experiment at the EC50, EC75, and EC90 of the combination. By convention, a CI of <0.9 was considered synergistic, a CI of ≧0.9 or ≦1.1 was considered additive, and a CI of >1.1 was deemed antagonistic.
For series [2], the system named is HCV. In words: Combination of viral entry inhibitor with IFN-α, HCVcc infection system, luciferase assay. The note with it: Huh7 cells, 72 hrs. The class given is cell-based. How it is done:
The current standard of care for the treatment of chronic hepatitis C is the combination of pegylated IFN-α (interferon-alpha) and ribavirin. […] Huh7 cells were incubated with various concentrations of Compound 1 or interferon alone, or combinations of both for 72 hrs, and the anti-HCV activity was measured by luciferase assays. The same was experiment was performed for Compound 5.

In a further series the test system is Jc1-luc virus. Description: Synergy testing (Combination Index) in Jc1-luc system. In kind it is cell-based, HCV genotype-2a. The method, then: Luciferase compound activity assay. Cell culture and luciferase compound assays were performed as previously described. See Wyles et al., J. Virol. 2007, 81:3005-8; Wyles et al., Antimicrob Agents Chemother. 2009, 53:2660-2; Grünberger et al., J. Infect. Dis. 2008, 197:42-5; Wyles et al., Antimicrob Agents Chemother, 2008, 52:1862-4. Briefly, Huh7.5.1 cells were seeded into 96-well plates at a density of 10,000 cells per well in 100 μl medium. After incubating overnight for attachment, Jc1-luc virus at an MOI 0.01 was added to wells with or without compounds at the specified concentrations. All conditions were run in triplicate. After 24 hours, medium was aspirated and replaced with 100 μl of complete medium containing an identical concentration of compound(s) followed by additional 48 hour incubation. The luciferase assay (Bright-Glo; Promega) was carried out according to the manufacturer's instructions. Luciferase activity was determined using a microplate luminometer (Veritas microplate luminometer; Turner Biosystems). The relative light units (RLU) for each condition were reported as the mean±the standard error of the mean for the three wells.
Synergy testing. The 50% effective concentration (EC50) of Compound 5 and other anti-HCV compounds was determined independently and used to set the range of concentrations for synergy experiments.
Data analysis. Determinations of compound interactions were quantified based on the median-effect principle described by Chou and Talalay. Chou T., Talalay P., Adv. Enzyme. Regul., 1984, 22:27-55. Combination indices (CIs) were determined using Calcusyn (Biosoft) for each experiment at the EC50, EC75, and EC90 levels. Five replicates per condition were evaluated. A CI<0.9 was considered synergistic, a CI≧0.9 and ≦[…] was considered additive, and a CI>1.1 was deemed antagonistic.

In series [3] the test system is HCV2aCh (E2:G451R) mutant virus. In words: E2:G451R mutant virus, immuno-fluorescence read-out. The class given is cell-based, HCV genotype 2a. How it is done:
IF analysis: Following aspiration of supernatant from a 24-well plate, 1 ml of ice cold methanol was added to each well and the plate was stored overnight at −20° C. The following day, methanol was removed and the plates were air-dried at room temperature for about 30 minutes. The plate was then rinsed/rehydrated with two washes of PBS (˜5 minutes/wash). To block non-specific antibody binding, cells were incubated in blocking buffer (1% BSA, 0.2% skim milk in PBS) for 1 hour at room temperature. Primary antibody (mouse anti-HCV Core; Affinity BioReagents, MA1-080) was diluted 1:1000 in PBS+0.1% Tween-20 and incubated overnight at 4° C. on rocker (˜200 μl of antibody/well). The next day, wells were washed with PBS (three washes of 5 minutes each) and then incubated for 30 minutes at room temperature with a secondary antibody: goat anti-mouse_AlexaFluor488 (1:1000 dilution in PBS/Tween; Molecular Probes/Invitrogen #A11001). The cells were then washed with PBS three times (5 minutes each), including once with Hoechst dye (0.4 ug/ml; Molecular Probes/Invitrogen #H3570) to counterstain the nuclei of cells. Immunofluorescence staining was analyzed using 10× objective on a Zeiss fluorescent microscope.

The next series concerns HCV1a/2a chimeric virus. Description: HCV entry assay with HCV1a/2a chimeric virus. In kind it is cell-based, HCV genotype 1a. As to conditions: compared with HCV2a chimeric virus. The source says:
Since HCV genotype 1 is the most prevalent genotype among the variants of HCV, we constructed an HCV1a/2a chimeric infectious clone with two cell-culture adaptive mutations introduced. Sequences for the structural proteins (including C, E1, and E2), p7, and NS2 were derived from HCV genotype 1a H77 strain. The rest of nonstructural proteins (NS3 to NS5B) and 3′ NTR were derived from HCV genotype 2a JFH strain. 5′NTR was originated from HCV2aJ6 (FIG. 7). […] Therefore, both HCV1a/2aCh virus and HCV1a/2aChLuc virus with Y361H and Q1251L mutations were successively produced in Huh7 cells and used for HCV entry assay.

A short description of series [4]: Cytotoxicity of anti-HCV compounds (CC50, Table 4). As to conditions: human, Huh7.5.1 cells.
For series [5], the system named is HCV2aCh (E2:G451R) mutant virus. In words: E2:G451R mutant virus, Taqman assay for viral RNA copies. As to conditions: 0-500 nM; about 27.5 hours after virus exposure. In kind it is cell-based, HCV genotype 2a. The method, then:
Two 24-well plates were seeded with 4×10^4 cells/well. The following day, cell culture supernatant was aspirated and cells were exposed to HCV2aCh wild type (black bars) and HCV2aCh (E2:G451R) mutant (blue bars), Approximately 250 μl of cell culture virus was added to each well (˜1×10^4 TCID/well or moi ˜0.25). Immediately after the addition of virus to the well, 2.5 μl of 100× concentration of compound was added to each well—and mixed multiple times with a 100 ul pipet tip—to achieve final compound dilutions: 0 nM, 5 nM, 15 nM, 50 nM, 150 nM, and 500 nM. Compound 5 was tested. Each plate was processed consecutively. After addition of virus and compound the plates were placed in the incubator for ˜3.5 hours (37° C., 5% CO2). Following incubation, the supernatant was replaced with fresh media (˜1 ml/well) and plates were returned to incubator. Twenty-four hours later (˜27.5 hours following virus exposure to the cells), cells were washed once with 1 ml of PBS and then the cells were processed for Taqman analysis.
For orientation: In qPCR the cycle at which signal appears reflects the starting amount.

Regarding `COc1c(NC(=O)C(=O)c2ccc(OCCN3CCOCC3)c3ccccc23)cc(C(C)(C)C)cc1NS(C)(=O)=O` [Compound 5, N-(5-tert-butyl-2-methoxy-3-(methylsulfonamido)phenyl)-2-(4-(2-morpholinoethoxy)naphthalen-1-yl)-2-oxoacetamide], the “resistance of NS3:A156S mutant virus versus wild type (inhibition of infectivity)” value in the series with HCV2aChLuc (NS3:A156S) is reported as “no significant difference”. Further, in the series on HCV [1], the “effect of combination with VX-950” value is recorded as “additive to slightly synergistic effects”. Moreover, the “effect of combination with IFN-α on inhibition of HCV infection in cell culture” value with HCV [2] is given as “additive to moderate synergistic effect”. Further, the “antagonism with any compound studied” value in the series with Jc1-luc virus is “not antagonistic”. In the series on Jc1-luc virus (at 50% effective dose (ED50)), the “Combination Index (CI) with 2′-C-methyladenosine” value was determined as 1.09, the “Combination Index (CI) with BILN2061” value is 0.98 and the “Combination Index (CI) with interferon-alpha” value turned out to be 1.00. Also, in the series on Jc1-luc virus (at ED50, ED75 and ED90), the “interaction with VX1” value is on record as “consistent synergy”. For the same compound, the “interaction with all compounds tested” value in the series with Jc1-luc virus (at ED75 and ED90) is listed as “synergy”. The “sensitivity of E2 mutant relative to wild-type virus, immuno-fluorescence” value in series [3] was “more resistant”. Also, in the series on HCV1a/2a chimeric virus, the “inhibition of HCV1a chimeric virus” value is “inhibited”. This compound also had a CC50 in series [4] above 100 µM. The “sensitivity of E2 mutant virus relative to wild-type virus, Taqman assay for viral RNA copies” value in series [5] was “greater resistance”.
